From patent publication US20130123215A1, “2,5-DIOXOIMIDAZOLIDIN-1-YL-3-PHENYLUREA DERIVATIVES AS FORMYL PEPTIDE RECEPTOR LIKE-1 (FPRL-1) RECEPTOR MODULATORS” (ALLERGAN, INC., priority 2011, published 2013) come the findings set out here.

A value given as a limit tells only on which side of the number the result lay.

Usually EC50 stands for the concentration needed to bring the measured effect to its halfway point.

The test deals with T1, FPRL-1 (Homo sapiens, UniProt P25090).
T1 construct: expressed in transfected cells; host or cells: CHO-Gα16 cells stably expressing FPRL1
T1 sequence (P25090 1-351): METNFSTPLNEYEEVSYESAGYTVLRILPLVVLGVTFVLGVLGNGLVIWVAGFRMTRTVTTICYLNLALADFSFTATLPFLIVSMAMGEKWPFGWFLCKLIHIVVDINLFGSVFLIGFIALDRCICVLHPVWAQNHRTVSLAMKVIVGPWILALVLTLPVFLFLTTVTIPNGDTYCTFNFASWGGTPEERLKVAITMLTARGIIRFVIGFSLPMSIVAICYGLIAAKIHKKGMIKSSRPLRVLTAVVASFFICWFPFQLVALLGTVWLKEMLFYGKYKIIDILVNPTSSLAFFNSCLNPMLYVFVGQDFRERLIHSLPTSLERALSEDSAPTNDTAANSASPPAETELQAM
Description: FPRL-1 Ga16-CHO compound-induced calcium activity (FLIPR Tetra). The test is classed as cell-based. As to conditions: CHO-Gα16 cells stably expressing FPRL1; calcium activity on FLIPR Tetra; tested at 0.61 to 10,000 nM; read-out: FPRL-1 Ga16-CHO EC50. How it is done: HEK-Gα16 and CHO-Gα16 cells stably expressing FPRL1 were cultured in (F12, 10% FBS, 1% PSA, 400 μg/ml geneticin and 50 μg/ml hygromycin) and HEK-Gqi5 cells stable expressing FPR1 were cultured in (DMEM high glucose, 10% FBS, 1% PSA, 400 μg/ml geneticin and 50 μg/ml hygromycin). In general, the day before the experiment, 18,000 cells/well were plated in a 384-well clear bottom poly-d-lysine coated plate. The following day the screening compound-induced calcium activity was assayed on the FLIPR^Tetra. The drug plates were prepared in 384-well microplates using the EP3 and the MultiPROBE robotic liquid handling systems. Compounds were tested at concentrations ranging from 0.61 to 10,000 nM. Results are expressed as EC50 (nM) and efficacy values.
Consider `CC(C)C1(CO)NC(=O)N(NC(=O)Nc2ccc(Br)cc2F)C1=O` (stereo not drawn) [Compound 76, 1-(4-Bromo-2-fluorophenyl)-3-(4-(2-hydroxymethyl)-4-isopropyl-2,5-dioxoimidazolidin-1-yl)urea], for which the EC50 was found to be 50 nM.

Take `COC(=O)c1ccccc1CCC1(C)NC(=O)N(NC(=O)Nc2ccc(Br)cc2)C1=O` (stereo not drawn) [Compound 59, Methyl 2-(2-(1-(3-(4-bromophenyl)ureido)-4-methyl-2,5-dioxoimidazolidin-4-yl)ethyl)benzoate]: the half-maximal effective concentration (EC50) worked out at 28.9 nM.

In the case of `CC(C)C1(CC(=O)O)NC(=O)N(NC(=O)Nc2ccc(Br)cc2F)C1=O` (stereo not drawn) [Compound 82, 2-(1-(3-(4-Bromo-2-fluorophenyl)ureido)-4-isopropyl-2,5-dioxoimidazolidin-4-yl)acetic acid], the concentration giving a half-maximal response (EC50) came to 713 nM.

In the case of `CCC1(CCc2ccccc2C(=O)OC)NC(=O)N(NC(=O)Nc2ccc(Br)cc2F)C1=O` (stereo not drawn) [Compound 61, Methyl 2-(2-(1-(3-(4-bromo-2-fluorophenyl)ureido)-4-ethyl-2,5-dioxoimidazolidin-4-yl)ethyl)benzoate], the EC50 stood at 14.9 nM.

In the case of `O=C(Nc1ccc(Br)cc1F)NN1C(=O)NC2(CCCC2)C1=O` [Compound 11, 1-(4-Bromo-2-fluorophenyl)-3-(2,4-dioxo-1,3-diazaspiro[4.4]nonan-3-yl)urea], the EC50 was determined as 23.9 nM.

Turning to `CC(C)C1(CO)NC(=O)N(NC(=O)Nc2ccc(Br)cc2)C1=O` (stereo not drawn) [Compound 74, 1-(4-Bromophenyl)-3-(4-(hydroxymethyl)-4-isopropyl-2,5-dioxoimidazolidin-1-yl)urea], the EC50 worked out at 2.65 nM.

As for `CCC1(CC)NC(=O)N(NC(=O)Nc2ccc(C#N)cc2)C1=O` [Compound 5, 1-(4-Cyanophenyl)-3-(4,4-diethyl-2,5-dioxoimidazolidin-1-yl)urea], the EC50 came out at 1230 nM.

Regarding `CC(C)C1(CC(=O)NC(C)(C)C(=O)O)NC(=O)N(NC(=O)Nc2ccc(Br)cc2)C1=O` (stereo not drawn) [Compound 95, 2-(2-(1-(3-(4-Bromophenyl)ureido)-4-isopropyl-2,5-dioxoimidazolidin-4-yl)acetamido)-2-methylpropanoic acid], the EC50 is 109 nM.

In the case of `CC(C)C1(CC(=O)NCCC(=O)OC(C)(C)C)NC(=O)N(NC(=O)Nc2ccc(Br)cc2)C1=O` (stereo not drawn) [Compound 91, tert-Butyl 3-(2-(1-(3-(4-bromophenyl)ureido)-4-isopropyl-2,5-dioxoimidazolidin-4-yl)acetamido)propanoate], the EC50 stood at 79.1 nM.

On to `CC(C)C1(C(C)C)NC(=O)N(NC(=O)Nc2ccc(Br)cc2)C1=O` [Compound 67, 1-(4-Bromophenyl)-3-[2,5-dioxo-4,4-di(propan-2-yl)imidazolidin-1-yl]urea], for which the EC50 was under 2 nM.

Turning to `CC(C)C1(CC(=O)NCCO)NC(=O)N(NC(=O)Nc2ccc(Br)cc2)C1=O` (stereo not drawn) [Compound 84, 2-(1-(3-(4-Bromophenyl)ureido)-4-isopropyl-2,5-dioxoimidazolidin-4-yl)-N-(2-hydroxyethyl)acetamide], the EC50 came out at 16.2 nM.

Consider `CCc1ccc(NC(=O)NN2C(=O)NC(CC)(CC)C2=O)cc1` [Compound 4, 1-(4-Ethylphenyl)-3-(4,4-diethyl-2,5-dioxoimidazolidin-1-yl)urea], for which the concentration giving a half-maximal response (EC50) was 125 nM.

Consider `CC1(CCc2ccccc2O)NC(=O)N(NC(=O)Nc2ccc(Br)cc2F)C1=O` (stereo not drawn) [Compound 51, 1-(4-Bromo-2-fluorophenyl)-3-(4-(2-hydroxyphenethyl)-4-methyl-2,5-dioxoimidazolidin-1-yl)urea], for which the EC50 turned out to be 5.8 nM.

Regarding `CC1(C)NC(=O)N(NC(=O)Nc2ccc(Br)cc2)C1=O` [Compound 12, 1-(4-Bromophenyl)-3-(4,4-dimethyl-2,5-dioxoimidazolidin-1-yl)urea], the EC50 amounted to 74.9 nM.

On to `COc1ccc(COCCC2(C(C)C)NC(=O)N(NC(=O)Nc3ccc(Br)cc3)C2=O)cc1` (stereo not drawn) [Compound 49, 1-(4-Bromophenyl)-3-(4-isopropyl-4-(2-((4-methoxybenzyl)oxy)ethyl)-2,5-dioxoimidazolidin-1-yl)urea], for which the concentration giving a half-maximal response (EC50) was determined as 232 nM.
